Data taken from PubChem BioAssay (NCI).
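Briefly, cells in 96-well plates were exposed to five compound concentrations for 48 h, and endpoints were estimated by linear interpolation. TGI: total growth inhibition.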

Legend:
Assay in all cases: NCI anticancer screen, dose series, 48 h
[1] = tested on: LXFL 529 NSCLC
[2] = tested on: KM20L2 colon
[3] = tested on: HOP-18 NSCLC
[4] = tested on: RXF-631 renal
[5] = tested on: SNB-78 CNS
[6] = tested on: DLD-1 colon

| SMILES | TGI [1] [µM] | TGI [2] [µM] | TGI [3] [µM] | TGI [4] [µM] | TGI [5] [µM] | TGI [6] [µM] |
| --- | --- | --- | --- | --- | --- | --- |
| COC(=O)C(=O)C(C(=O)C(=O)Nc1cc(C)ccc1C)c1nc2ccc(C(=O)c3ccccc3)cc2[nH]c1=O (stereo not drawn) | > 100 | > 100 | > 100 | > 100 | > 100 | – |
| C/C(=N\NC(=O)CC(=O)N(C(=O)c1ccc(Cl)cc1)c1ccc(C)cc1)c1ccccc1O | > 100 | > 100 | – | > 100 | > 100 | > 100 |
| c1ccc(N/N=C2\NN=C(c3ccccc3)CS2)cc1 | – | 22.8 | – | 35.8 | 34.2 | – |
| COC(=O)/C(=N\NC(N)=O)C(C(=O)C=C(C)C)C(=O)C(=O)Nc1ccc(Cl)c(Cl)c1 (stereo not drawn) | > 100 | > 100 | > 100 | > 100 | > 100 | > 100 |
| COc1ccc(CCc2cc(OC)c(O)c(OC)c2)cc1 | > 100 | > 100 | – | > 100 | > 100 | > 100 |
| c1ccc2c(NCCCCCCNc3cccc4ccccc34)cccc2c1 | > 100 | > 100 | > 100 | > 100 | > 100 | > 100 |
| O=C1C2C3C=CC(C2C(=O)N1CN1CCSCC1)C1C2C(=O)N(CN4CCSCC4)C(=O)C2C31 (stereo not drawn) | > 100 | > 100 | 91.5 | > 100 | > 100 | > 79.3 |
| Cn1cnc([N+](=O)[O-])c1Sc1nccc(=O)[nH]1 | > 100 | – | > 100 | > 100 | > 100 | > 100 |
| CCOC(=O)C(=O)Nc1ccccc1C(C)C | > 100 | > 100 | > 100 | > 100 | – | > 100 |
| COC(=O)C(/C(=N\NC(N)=S)C(=O)Nc1ccccc1[N+](=O)[O-])c1cnc2ccccc2n1 (stereo not drawn) | > 100 | > 100 | > 100 | > 100 | > 100 | > 100 |
| Cc1ccccc1C1CC(c2ccccc2)=NO1 (stereo not drawn) | > 100 | > 100 | > 100 | > 100 | > 100 | > 100 |
| C=C(CCCO)[C@@H]1CC[C@@](C)(O)[C@H]1C | > 100 | > 100 | > 100 | > 100 | > 100 | – |
